Data from patent publication US20230398130A1, “METHODS AND COMPOSITIONS FOR DIFFERENTIATING STEM CELLS” (Massachusetts Institute of Technology, priority 2020, published 2023).

What was measured:
[1] = test system: ISC-enriched organoids; experiment: Primary screen, 384-well 2.5-D organoid differentiation (ENR+CD, 6 days): carbachol-induced lysozyme secretion (LYZ.S); assay type: cell-based, murine; conditions: for Dose.FC.LYZ.S: FC vs plate median; for Z.LYZ.S: standard z score; for SSMD.LYZ.S: strictly standardized mean difference
Source text: (§1) High-throughput screening.

[2] = test system: ISC-enriched organoids; experiment: Primary screen, 384-well 2.5-D organoid differentiation (ENR+CD, 6 days): basal lysozyme secretion (LYZ.NS); assay type: cell-based, murine; conditions: for Dose.FC.LYZ.NS: FC vs plate median; for SSMD.LYZ.NS: strictly standardized mean difference
Source text: as §1

[3] = test system: ISC-enriched organoids; experiment: Primary screen, 384-well 2.5-D organoid differentiation (ENR+CD, 6 days, Target Selective Inhibitor Library, vs whole-plate median): ATP (CellTiter-Glo 3D, CTG); conditions: for Dose.FC.CTG: FC vs plate median; for SSMD.CTG: strictly standardized mean difference
[4] = primary screen, 1st of the 4 dose lines of the treatment (dose not given)
[5] = primary screen, 2nd of the 4 dose lines of the treatment (dose not given)
[6] = primary screen, 3rd of the 4 dose lines of the treatment (dose not given)
[7] = primary screen, 4th of the 4 dose lines of the treatment (dose not given)
[8] = Dose 0.08 uM, primary screen, standard z score
[9] = Dose 0.40 uM, primary screen, standard z score
[10] = Dose 2.00 uM, primary screen, standard z score
[11] = Dose 10.00 uM, primary screen, standard z score
[12] = Dose 0.08 uM, standard z score of FC
[13] = Dose 0.40 uM, standard z score of FC
[14] = Dose 2.00 uM, standard z score of FC
[15] = Dose 10.00 uM, standard z score of FC

## O=C(Nc1ccccc1)c1cc([N+](=O)[O-])ccc1Cl [GW9662]
[1]; Dose 0.08 uM, primary screen
  Dose.FC.LYZ.S: 0.036 log 2 fold change
[1]; Dose 0.40 uM, primary screen
  Dose.FC.LYZ.S: 0.080 log 2 fold change
[1]; Dose 2.00 uM, primary screen
  Dose.FC.LYZ.S: 0.093 log 2 fold change
[1]; Dose 10.00 uM, primary screen
  Dose.FC.LYZ.S: 0.020 log 2 fold change
[1]; [4]
  Z.LYZ.S: 0.235
  SSMD.LYZ.S: 0.218
[1]; [5]
  Z.LYZ.S: 0.520
  SSMD.LYZ.S: 0.534
[1]; [6]
  Z.LYZ.S: 0.599
  SSMD.LYZ.S: 0.571
[1]; [7]
  Z.LYZ.S: 0.131
  SSMD.LYZ.S: 0.149
[2]; Dose 0.08 uM, primary screen
  Dose.FC.LYZ.NS: 0.035 log 2 fold change
[2]; [8]
  Z.LYZ.NS: 0.305
[2]; Dose 0.40 uM, primary screen
  Dose.FC.LYZ.NS: 0.098 log 2 fold change
[2]; [9]
  Z.LYZ.NS: 0.852
[2]; Dose 2.00 uM, primary screen
  Dose.FC.LYZ.NS: 0.046 log 2 fold change
[2]; [10]
  Z.LYZ.NS: 0.400
[2]; Dose 10.00 uM, primary screen
  Dose.FC.LYZ.NS: 0.030 log 2 fold change
[2]; [11]
  Z.LYZ.NS: 0.264
[2]; [4]
  SSMD.LYZ.NS: 0.272
[2]; [5]
  SSMD.LYZ.NS: 0.722
[2]; [6]
  SSMD.LYZ.NS: 0.336
[2]; [7]
  SSMD.LYZ.NS: 0.282
[3]; Dose 0.08 uM, primary screen
  Dose.FC.CTG: 0.115 log 2 fold change
[3]; [8]
  Z.CTG: 0.274
[3]; Dose 0.40 uM, primary screen
  Dose.FC.CTG: 0.041 log 2 fold change
[3]; [9]
  Z.CTG: 0.098
[3]; Dose 2.00 uM, primary screen
  Dose.FC.CTG: 0.212 log 2 fold change
[3]; [10]
  Z.CTG: 0.508
[3]; Dose 10.00 uM, primary screen
  Dose.FC.CTG: 0.133 log 2 fold change
[3]; [11]
  Z.CTG: 0.318
[3]; [4]
  SSMD.CTG: 0.301
[3]; [5]
  SSMD.CTG: 0.117
[3]; [6]
  SSMD.CTG: 0.715
[3]; [7]
  SSMD.CTG: 0.378

## CC(C)c1cc(-c2n[nH]c(=O)n2-c2ccc3c(ccn3C)c2)c(O)cc1O [Ganetespib (STA-9090)]
[1]; Dose 0.08 uM, ENR+CD, 6 days
  Dose.FC.LYZ.S: −0.260 log 2 fold change
[1]; Dose 0.40 uM, ENR+CD, 6 days
  Dose.FC.LYZ.S: −0.250 log 2 fold change
[1]; Dose 2.00 uM, ENR+CD, 6 days
  Dose.FC.LYZ.S: −0.260 log 2 fold change
[1]; Dose 10.00 uM, ENR+CD, 6 days
  Dose.FC.LYZ.S: −0.267 log 2 fold change
[2]; Dose 0.08 uM, ENR+CD, 6 days
  Dose.FC.LYZ.NS: −0.141 log 2 fold change
[2]; [12]
  Z.LYZ.NS: −1.226
[2]; Dose 0.40 uM, ENR+CD, 6 days
  Dose.FC.LYZ.NS: −0.155 log 2 fold change
[2]; [13]
  Z.LYZ.NS: −1.345
[2]; Dose 2.00 uM, ENR+CD, 6 days
  Dose.FC.LYZ.NS: −0.150 log 2 fold change
[2]; [14]
  Z.LYZ.NS: −1.309
[2]; Dose 10.00 uM, ENR+CD, 6 days
  Dose.FC.LYZ.NS: −0.136 log 2 fold change
[2]; [15]
  Z.LYZ.NS: −1.181
[3]; Dose 0.08 uM, ENR+CD, 6 days
  Dose.FC.CTG: −1.450 log 2 fold change
[3]; [12]
  Z.CTG: −3.465
[3]; Dose 0.40 uM, ENR+CD, 6 days
  Dose.FC.CTG: −2.105 log 2 fold change
[3]; [13]
  Z.CTG: −5.027
[3]; Dose 2.00 uM, ENR+CD, 6 days
  Dose.FC.CTG: −1.721 log 2 fold change
[3]; [14]
  Z.CTG: −4.110
[3]; Dose 10.00 uM, ENR+CD, 6 days
  Dose.FC.CTG: −1.620 log 2 fold change
[3]; [15]
  Z.CTG: −3.871

## COc1ccc(-c2cnc3c(-c4cccc5ncccc45)cnn3c2)cc1 [ML347]
[1]; Dose 0.08 uM, primary screen
  Dose.FC.LYZ.S: 0.094 log 2 fold change
[1]; Dose 0.40 uM, primary screen
  Dose.FC.LYZ.S: 0.111 log 2 fold change
[1]; Dose 2.00 uM, primary screen
  Dose.FC.LYZ.S: 0.072 log 2 fold change
[1]; Dose 10.00 uM, primary screen
  Dose.FC.LYZ.S: −0.202 log 2 fold change
[1]; [4]
  Z.LYZ.S: 0.608
  SSMD.LYZ.S: 0.546
[1]; [5]
  Z.LYZ.S: 0.715
  SSMD.LYZ.S: 0.729
[1]; [6]
  Z.LYZ.S: 0.467
  SSMD.LYZ.S: 0.450
[1]; [7]
  Z.LYZ.S: −1.303
  SSMD.LYZ.S: −1.245
[2]; Dose 0.08 uM, primary screen
  Dose.FC.LYZ.NS: 0.124 log 2 fold change
[2]; [12]
  Z.LYZ.NS: 1.079
[2]; Dose 0.40 uM, primary screen
  Dose.FC.LYZ.NS: 0.132 log 2 fold change
[2]; [13]
  Z.LYZ.NS: 1.150
[2]; Dose 2.00 uM, primary screen
  Dose.FC.LYZ.NS: 0.069 log 2 fold change
[2]; [14]
  Z.LYZ.NS: 0.600
[2]; Dose 10.00 uM, primary screen
  Dose.FC.LYZ.NS: −0.124 log 2 fold change
[2]; [15]
  Z.LYZ.NS: −1.078
[2]; [4]
  SSMD.LYZ.NS: 1.159
[2]; [5]
  SSMD.LYZ.NS: 1.286
[2]; [6]
  SSMD.LYZ.NS: 0.509
[2]; [7]
  SSMD.LYZ.NS: −0.643
[3]; Dose 0.08 uM, primary screen
  Dose.FC.CTG: 0.184 log 2 fold change
[3]; [12]
  Z.CTG: 0.439
[3]; Dose 0.40 uM, primary screen
  Dose.FC.CTG: 0.209 log 2 fold change
[3]; [13]
  Z.CTG: 0.500
[3]; Dose 2.00 uM, primary screen
  Dose.FC.CTG: 0.137 log 2 fold change
[3]; [14]
  Z.CTG: 0.328
[3]; Dose 10.00 uM, primary screen
  Dose.FC.CTG: −0.169 log 2 fold change
[3]; [15]
  Z.CTG: −0.404
[3]; [4]
  SSMD.CTG: 0.464
[3]; [5]
  SSMD.CTG: 0.557
[3]; [6]
  SSMD.CTG: 0.403
[3]; [7]
  SSMD.CTG: −0.307
